Laboratory results as given in ChEMBL document CHEMBL2434896, “Carbonic anhydrase inhibitors. Synthesis of heterocyclic 4-substituted pyridine-3-sulfonamide derivatives and their inhibition of the human cytosolic isozymes I and II and transmembrane tumor-associated isozymes IX and XII” (Eur J Med Chem, 2013).

Molecular target: Carbonic anhydrase 9 (Homo sapiens, UniProt Q16790)
Experiment: Inhibition of human carbonic anhydrase 9 after 15 mins by stopped flow CO2 hydration assay

| Ki [nM] | Structure (SMILES) |
| --- | --- |
| 24.8 | Cc1cc(C)n(-c2ccncc2S(N)(=O)=O)n1 |
| 239 | NS(=O)(=O)c1cnccc1N1CCN(c2ccc(F)cc2)CC1 |
